No end group written: not given here.
Columns and labels:
[1] = test system: BV2 cells, murine microglia; test: Cytotoxicity, MTT assay in BV2 cells; assay type: cell-based; conditions: for cytotoxicity in BV2 cell: 10, 50, 100 μM, 24 and 48 hours
Protocol: Cytoprotective effect was determined by MTT reduction assay. […] After incubations for 24 hours and 48 hours, the incubated cells were washed with PBS, 100 μl of MTT (0.5 mg/ml final concentration) was added to each wells, and incubation was continued for another 4 hours for a reduction of MTT. […] Relative cell viability was calculated as a percentage compared with the absorbance of the untreated control group.

[2] = test system: PC12 cells co-cultured with BV2 cells; test: Co-culture of Aβ42-activated BV2 cells and PC12 cells, MTT assay; conditions: 100 μM peptide, 48 hours, 5 uM Aβ42
Protocol: For the co-culture of microglia and PC12 cells, which has been employed to assess the neurotoxin effect of activated microglia, microglia was first seeded onto cell culture inserts (pore size of 0.2 μm; SPL, Korea). After overnight incubation, microglia were left untreated or exposed 5 uM Aβ42 in the presence or absence of peptides for 24 h. Afterwards, the microglial cells were co-cultured with PC12 cells by transferring the culture inserts containing microglia onto PC12 cell monolayers (see FIG. 15).
In order to confirm cell viability of co-cultured PC12 cell, MTT assay was performed.

NO = NO production, Griess reaction in Aβ42-stimulated BV2 cells; assay type: cell-based, murine; conditions: stimulation with Aβ42 alone (control), 1 μM 48 h
Protocol: NO levels in the cultured BV2 cells' supernatants were measured by the Griess reaction. In brief, BV2 cells were pre incubated overnight in 24-well plates using DMEM without phenol red at a density 2×10^5 cells/ml, followed by the treatment with the HIP-1 peptide of the present invention having various concentrations (10, 50, 100 μM) as a sample for 6 h. After 6 h, the NO production was stimulated by adding Aβ42 (1 μM final concentration) and incubated for further 48 h. Then 50 μl of culture supernatants from each samples was mixed with the same volume of the Griess reagent [1% sulfanilamide/0.1% N-1-naphthyl]-ethylenediamine dihydrochloride/2.5% phosphoric acid] following the incubation for 15 min. Absorbance values were read at 540 nm using ELISA microplate reader (Tecan GmbH, Austria). Blank was not treated, and control was activated BV2 cells by exposing Aβ42 without the HIP-1 peptide of the present invention.

[3] = test system: nerve cells-differentiated PC12 cells
Protocol: The present inventors induced a nerve toxin in PC12 cells by differentiating PC12 cells into nerve cells through treating with NGF, and then treating to the differentiated PC12 cells with 20 μM of Aβ42 for 24 hours.
Cytoprotective effect was determined by MTT reduction assay. […] After incubation for 24 hours, 100 μl of MTT (1 mg/ml final concentration) was added to each of wells and incubation was continued for another 4 hours. MTT is used as an indicator of cell viability through its mitochondrial reduction to formazan. Mitochondrial succinate dehydrogenase in live cells converts MTT into visible formazan crystals during incubation. The formazan crystals were then solubilized in DMSO and the absorbance was measured at 540 nm by using enzyme-linked immunosorbent assay (ELISA) microplate reader (Tecan GmbH, Austria). Relative cell viability was calculated compared with the absorbance of the untreated control group.

With FLHDVQ [HTP-2, FLHDVQ] the “cytotoxicity in BV2 cell” value [1] was “did not exhibit cytotoxicity” and the “cell viability of PC12 cells co-cultured with BV2 cells” value [2] was 75.19±2.55%.

With amyloid-beta 42 [Aβ42] the “toxicity of Aβ42 in BV2 cells” value ([1]; Aβ42 0.1, 0.5, 1, 5, 10 μM) was “no toxicities”, the “production of NO” value (NO) was 24.59 ± 2.54 µM and the “cell viability of nerve cell-differentiated PC12 cells” value ([3]; 10 μM Aβ42, FIG. 2) was “greatly decreased”. For the same substance, the PC12 cell viability ([3]; 20 μM Aβ42 for 24 h) was “reduction”.

With GTEDELDK [HTP-1] the “cytotoxicity in BV2 cell” value [1] was “did not exhibit cytotoxicity” and the “cell viability of PC12 cells co-cultured with BV2 cells” value [2] was 82.49±3.05%.
